Measured values taken from ChEMBL document CHEMBL1201862, “PubChem BioAssay data set” (2004).
Where a name gives a salt, the structure may show the parent alone. Calls of active or inactive are those of the source.

What was measured:
Type in all cases: functional
[1] = biological target: DNA dC->dU-editing enzyme APOBEC-3A (Homo sapiens, UniProt P31941); assay: Dose Response confirmation of small molecule APOBEC3A DNA Deaminase Inhibitors via a fluorescence-based single-stranded DNA deaminase assay. [Related pubchem assays (depositor defined):AID493011, AID493024]
[2] = biological target: DNA dC->dU-editing enzyme APOBEC-3G (Homo sapiens, UniProt Q9HC16);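 also: Dose-response counterscreen measuring inhibition of APOBEC3G DNA deaminase activity, run while confirming APOBEC3A inhibitors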
[3] = biological target: T1, High affinity choline transporter 1 (Homo sapiens, UniProt Q9GZV3); assay: human choline transporter potentiators, potency – cell-based, 10-point CRC, membrane potential dye, dose response (AID 602376)
T1 sequence (Q9GZV3 whole entry): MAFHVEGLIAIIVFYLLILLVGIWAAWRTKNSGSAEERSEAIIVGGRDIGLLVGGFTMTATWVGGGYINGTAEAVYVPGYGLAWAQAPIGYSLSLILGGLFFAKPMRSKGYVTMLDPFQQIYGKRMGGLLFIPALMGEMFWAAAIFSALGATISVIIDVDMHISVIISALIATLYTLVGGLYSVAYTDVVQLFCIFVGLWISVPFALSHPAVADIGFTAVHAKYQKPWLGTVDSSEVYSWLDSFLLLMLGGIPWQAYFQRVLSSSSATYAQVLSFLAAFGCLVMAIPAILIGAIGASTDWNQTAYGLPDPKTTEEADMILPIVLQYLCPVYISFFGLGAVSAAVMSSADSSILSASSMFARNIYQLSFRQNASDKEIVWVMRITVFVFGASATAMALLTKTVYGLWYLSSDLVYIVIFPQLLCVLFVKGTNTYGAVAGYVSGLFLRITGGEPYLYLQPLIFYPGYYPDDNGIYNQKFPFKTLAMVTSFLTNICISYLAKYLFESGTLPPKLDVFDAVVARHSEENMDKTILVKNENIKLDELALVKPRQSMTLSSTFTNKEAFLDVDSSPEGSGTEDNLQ

[4] = biological target: T2, Carboxy-terminal domain RNA polymerase II polypeptide A small phosphatase 1 (Homo sapiens, UniProt Q9GZU7); assay: CTDSP1 inhibitors, concentration-response, biochemical, absorbance readout, ultra-high-throughput screen actives (AID 540297)
T2 sequence (Q9GZU7 whole entry): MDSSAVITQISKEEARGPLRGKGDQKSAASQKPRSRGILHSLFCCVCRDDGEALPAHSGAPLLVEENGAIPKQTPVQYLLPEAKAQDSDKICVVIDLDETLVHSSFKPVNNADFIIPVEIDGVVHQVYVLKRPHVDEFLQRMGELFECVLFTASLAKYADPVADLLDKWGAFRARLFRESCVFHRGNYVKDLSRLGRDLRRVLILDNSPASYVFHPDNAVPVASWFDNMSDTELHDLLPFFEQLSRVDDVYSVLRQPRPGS

[5] = biological target: T3, Low molecular weight phosphotyrosine protein phosphatase (Homo sapiens, UniProt P24666); details: read-out: IC50_Mean
T3 sequence (P24666 whole entry): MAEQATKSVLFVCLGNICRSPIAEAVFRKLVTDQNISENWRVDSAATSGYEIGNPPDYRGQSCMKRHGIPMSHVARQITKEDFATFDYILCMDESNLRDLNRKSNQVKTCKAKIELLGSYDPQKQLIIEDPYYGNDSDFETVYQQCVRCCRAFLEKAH

[6] = biological target: T3, Low molecular weight phosphotyrosine protein phosphatase; details: read-out: IC50_Mean; remark: listed apart in the source
[7] = biological target: Scavenger receptor class B member 1 (Mus musculus, UniProt Q61009); assay: blockers of DiI-HDL lipid transfer via SR-BI – cell-based, ldlA[mSR-BI] CHO, DiI fluorescence, dry powder, set 10, dose response (AID 624029)
Interleukin-8 = Interleukin-8 (Homo sapiens, UniProt P10145); assay: Dose Response confirmation of uHTS small molecule hits for cystic fibrosis induced NFkb Inhibitors in a PAF-induced IL8 counterscreen.; details: read-out: IC50_Mean
[8] = cytotoxicity in HEK293 background cells – cell-based, dry powder, set 2, counter-screen for EBV LMP1 inhibitor project, dose response (AID 624374)
[9] = inhibitors of EBV LMP1 NF-kappaB signaling – cell-based, luciferase reporter, luminescence, dry powder, set 2, dose response (AID 624376)
[10] = bead-based luminescence quenchers, dual-tagged ARNT – biochemical, AlphaScreen, cherry-pick, artefact control for ARNT-TACC3 interaction inhibitor project, dose response (AID 651705);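 also: AlphaScreen bead proximity signal that flags compounds interfering with the detection technology; potency reflects signal decrease which marks the compound as an assay artifact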
[11] = biological target: T1, High affinity choline transporter 1; assay: human choline transporter blockers, potency – cell-based, 5-point CRC, membrane potential dye, dose response (AID 504840)
[12] = biological target: T1, High affinity choline transporter 1; assay: human choline transporter blockers, potency – cell-based, 10-point CRC, membrane potential dye, dose response (AID 588401);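 also: membrane potential dye fluorescence of choline-evoked depolarization via CHT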

Sequence of Scavenger receptor class B member 1 (Q61009 whole entry): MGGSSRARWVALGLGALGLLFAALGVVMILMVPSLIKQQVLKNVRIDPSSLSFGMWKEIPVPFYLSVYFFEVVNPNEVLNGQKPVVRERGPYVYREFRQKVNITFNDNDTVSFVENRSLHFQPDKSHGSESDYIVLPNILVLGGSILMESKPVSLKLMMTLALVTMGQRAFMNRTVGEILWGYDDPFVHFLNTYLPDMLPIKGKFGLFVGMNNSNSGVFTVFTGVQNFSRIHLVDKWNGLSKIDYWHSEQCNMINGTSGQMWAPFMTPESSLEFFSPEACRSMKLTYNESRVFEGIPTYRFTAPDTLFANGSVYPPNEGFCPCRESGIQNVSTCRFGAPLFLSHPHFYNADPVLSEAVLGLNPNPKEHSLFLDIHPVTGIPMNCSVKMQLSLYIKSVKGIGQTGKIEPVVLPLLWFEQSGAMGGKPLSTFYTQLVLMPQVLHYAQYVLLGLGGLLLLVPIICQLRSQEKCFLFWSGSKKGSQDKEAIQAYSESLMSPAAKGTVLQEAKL
Sequence of DNA dC->dU-editing enzyme APOBEC-3G (Q9HC16 whole entry): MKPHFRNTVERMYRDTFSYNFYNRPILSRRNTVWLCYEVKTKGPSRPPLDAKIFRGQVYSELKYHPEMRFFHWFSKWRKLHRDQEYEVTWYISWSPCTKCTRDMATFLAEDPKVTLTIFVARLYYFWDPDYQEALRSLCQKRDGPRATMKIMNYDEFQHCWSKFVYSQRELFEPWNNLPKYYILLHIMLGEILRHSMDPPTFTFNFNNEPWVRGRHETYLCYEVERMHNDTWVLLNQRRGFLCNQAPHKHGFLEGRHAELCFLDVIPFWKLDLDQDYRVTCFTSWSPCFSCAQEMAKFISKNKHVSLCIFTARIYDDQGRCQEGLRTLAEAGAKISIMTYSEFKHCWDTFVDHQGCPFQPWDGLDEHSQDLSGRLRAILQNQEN
Sequence of DNA dC->dU-editing enzyme APOBEC-3A (P31941 whole entry): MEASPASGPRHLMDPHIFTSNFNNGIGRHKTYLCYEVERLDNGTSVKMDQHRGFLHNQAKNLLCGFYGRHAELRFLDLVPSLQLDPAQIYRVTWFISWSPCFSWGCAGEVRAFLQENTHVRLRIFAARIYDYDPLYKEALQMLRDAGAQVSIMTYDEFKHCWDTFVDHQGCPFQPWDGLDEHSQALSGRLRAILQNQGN
Sequence of Interleukin-8 (P10145 whole entry): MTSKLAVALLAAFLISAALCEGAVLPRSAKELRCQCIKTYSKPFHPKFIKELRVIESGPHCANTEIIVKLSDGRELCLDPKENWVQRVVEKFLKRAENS

In the case of CCN1C(NCCc2cccnc2)=N[C@@H](c2ccccc2)[C@H](C(=O)OC)[C@H]1C, the IC50 [1] is reported as 4.22 µM (active), the IC50 [2] is reported as 6.37 µM (active) and the EC50 [3] is reported as 14.6 µM (active).
In the case of N=c1c2ccccc2nnn1-c1ccc(C(F)(F)F)cc1, the IC50 [4] is reported as 8.01 µM (active), the IC50 [5] is reported as 18.8 µM (active) and the IC50 [6] is reported as 12.8 µM (active).
In the case of CC(C)NC(=O)Nc1ccc2c(c1)C(=O)N([C@@H](C)CO)C[C@H](C)[C@H](CN(C)S(=O)(=O)c1ccc(Cl)cc1)O2, the AC50 [7] is reported as > 70 µM (inactive).
With CC(=O)c1c(C)n(-c2ccc(C)cc2C)c2ccc(O)cc12 the IC50 (Interleukin-8) was > 79 µM (inactive).
Work on CO[C@H](CN(C)S(=O)(=O)c1cccc(Cl)c1)[C@@H](C)CN([C@H](C)CO)S(=O)(=O)c1ccc(Cl)cc1 yielded an AbsAC35 [8] of 104.79 µM and an AbsAC35 [9] of 36.95 µM.
In the case of Cn1c(-c2ccc3c(c2)OCO3)cnc1N, the AC50 [10] is reported as 83.7 µM (active).
For COc1ccc(C(=O)c2c3ccc(C(F)(F)F)cc3[n+]([O-])n2CCCN)cc1, the IC50 [11] was 9.03 µM (active) and the IC50 [12] was 4.47 µM (active).
In the case of CC(C)(C)NCC(O)c1cc(Cl)c(N)c(Cl)c1 (stereo not given) [CLENBUTEROL HYDROCHLORIDE], the IC50 [11] is reported as 0.0288 µM (active) and the IC50 [12] is reported as 0.000897 µM (active).
